Values of other authors, collected in patent publication US20140315956A1, “SMALL MOLECULE INHIBITORS OF IL-6 AND USES THEREOF” (NATIONWIDE CHILDREN'S HOSPITAL, priority 2011, published 2014).

Target: T1, GP130 (Homo sapiens, UniProt P40189)
T1 sequence (P40189 23-918): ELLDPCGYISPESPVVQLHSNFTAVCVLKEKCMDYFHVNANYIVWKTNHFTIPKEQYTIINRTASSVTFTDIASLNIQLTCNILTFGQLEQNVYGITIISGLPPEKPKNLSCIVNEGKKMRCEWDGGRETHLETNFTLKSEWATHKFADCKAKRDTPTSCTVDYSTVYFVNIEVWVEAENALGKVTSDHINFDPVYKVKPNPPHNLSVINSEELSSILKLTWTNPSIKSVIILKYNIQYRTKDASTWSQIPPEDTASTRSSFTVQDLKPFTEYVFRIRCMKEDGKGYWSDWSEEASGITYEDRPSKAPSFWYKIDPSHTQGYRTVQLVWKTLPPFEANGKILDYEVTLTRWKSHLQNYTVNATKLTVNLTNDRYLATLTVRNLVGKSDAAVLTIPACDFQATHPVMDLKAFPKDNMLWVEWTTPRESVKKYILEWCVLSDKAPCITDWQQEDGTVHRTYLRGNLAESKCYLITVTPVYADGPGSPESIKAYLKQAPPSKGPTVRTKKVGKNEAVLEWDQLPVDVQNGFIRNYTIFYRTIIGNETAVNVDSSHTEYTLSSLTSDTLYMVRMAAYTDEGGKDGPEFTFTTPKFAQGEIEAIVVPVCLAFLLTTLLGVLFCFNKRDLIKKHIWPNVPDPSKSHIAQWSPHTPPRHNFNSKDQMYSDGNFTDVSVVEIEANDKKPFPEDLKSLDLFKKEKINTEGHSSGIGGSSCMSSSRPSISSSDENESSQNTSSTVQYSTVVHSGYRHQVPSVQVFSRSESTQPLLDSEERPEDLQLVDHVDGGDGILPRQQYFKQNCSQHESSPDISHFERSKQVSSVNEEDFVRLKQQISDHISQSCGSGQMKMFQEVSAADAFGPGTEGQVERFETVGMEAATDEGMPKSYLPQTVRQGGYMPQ
Conditions: reported by Saleh et al.; read-out: GP130 binding affinity KD; cited from earlier work

CCCCC1=C(C)C(=O)[C@@](C)(CN2c3ccccc3[C@]3(O)CCO[C@H]23)C1=O [MDL-A, (+)-Madindoline A, reference compound]
Kd: 288 µM
